According to publication PMC9227830, “Neuroprotective Effect of Yucca schidigera Roezl ex Ortgies Bark Phenolic Fractions, Yuccaol B and Gloriosaol A on Scopolamine-Induced Memory Deficits in Zebrafish” (Molecules, 2022):

Target: T1, Glycine max (soybean) 15-lipoxygenase (15-LOX) (Glycine max, UniProt P08170)
T1 construct: gene LOX1.1; commercial native soybean enzyme (Sigma-Aldrich)
T1 sequence (P08170 1-839): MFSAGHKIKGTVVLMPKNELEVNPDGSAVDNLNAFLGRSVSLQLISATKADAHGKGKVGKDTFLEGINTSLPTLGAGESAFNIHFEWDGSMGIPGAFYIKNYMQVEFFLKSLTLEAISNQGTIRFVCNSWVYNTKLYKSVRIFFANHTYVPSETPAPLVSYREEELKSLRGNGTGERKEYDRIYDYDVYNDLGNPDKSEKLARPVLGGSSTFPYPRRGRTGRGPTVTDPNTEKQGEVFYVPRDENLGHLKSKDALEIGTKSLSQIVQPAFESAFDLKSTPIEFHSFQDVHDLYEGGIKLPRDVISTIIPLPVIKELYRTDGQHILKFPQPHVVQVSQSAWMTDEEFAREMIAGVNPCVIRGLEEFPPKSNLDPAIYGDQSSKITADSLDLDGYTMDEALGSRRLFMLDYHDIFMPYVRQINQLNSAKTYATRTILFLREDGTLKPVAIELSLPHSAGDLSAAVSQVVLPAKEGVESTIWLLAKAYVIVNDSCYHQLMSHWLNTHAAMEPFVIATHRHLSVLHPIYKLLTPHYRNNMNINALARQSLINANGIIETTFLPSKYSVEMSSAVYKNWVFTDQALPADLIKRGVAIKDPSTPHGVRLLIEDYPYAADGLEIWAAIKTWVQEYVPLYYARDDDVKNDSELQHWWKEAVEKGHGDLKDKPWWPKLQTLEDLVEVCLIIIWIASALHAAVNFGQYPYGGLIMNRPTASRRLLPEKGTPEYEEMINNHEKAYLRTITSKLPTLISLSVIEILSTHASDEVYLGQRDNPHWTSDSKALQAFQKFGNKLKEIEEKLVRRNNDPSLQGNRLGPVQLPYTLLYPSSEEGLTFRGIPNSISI
Test: UV spectrophotometry at […] nm, linoleic acid oxidation (modified Malterud)
Format: biochemical
Details: read-out: EC50 (the source's name) (converted)

IC50 [µM] | Compound
19.5 | O=C1Oc2cc(O)cc(/C=C/c3ccc(O)cc3)c2[C@@]12c1c(O)cc(O)cc1O[C@H]2c1ccc(O)cc1 [YuB, yuccaol B]
15.2 | COc1c(O)cc(/C=C/c2cc(O)cc3c2[C@]2(C(=O)O3)c3c(O)cc(O)cc3O[C@H]2c2ccc(O)cc2)c2c1OC(=O)[C@]21c2c(O)cc(O)cc2O[C@H]1c1ccc(O)cc1 [GloA, gloriosaol A]
122 | O=C1O[C@H]([C@@H](O)CO)C(O)=C1O [vitamin C, reference compound]
